Experimental data as given in patent US6946458B2, “N-thiolated beta-lactams: novel antibacterial agents for methicillin-resistant Staphylococcus aureus” (University of South Florida, priority 1999, dated 2005).

Key:
[1] = system: MRSA USF652; test: Kirby-Bauer agar disk diffusion; assay type: cell-based, Staphylococcus aureus; conditions: 6-mm disks, 20 μg test compound
Experimental: (§1) In this study, a selection of N-methylthio-substituted β-lactams are examined for antimicrobial activity by the Kirby-Bauer disk diffusion method on agar plates. A variety of common Gram-positive and Gram-negative bacteria are tested, including clinical isolates of methicillin-resistant Staphylococcus aureus (MRSA).
(§2) Compound susceptibility measurements are obtained from agar disk diffusion experiments using 6-mm air-dried disks impregnated with 20 μg of the test compound. The values correspond to the average diameters in mm (triplicate experiments) for the zone of growth inhibition observed after 24 h. Staphylococcus aureus (ATCC 25923) and β-lactamase-producing strains of methicillin-resistant Staphylococcus aureus (labeled as MRSA USF652-659) are obtained from Lakeland Regional Medical Center, Lakeland, Fla. Staphylococcus epidermidis, Staphylococcus simulans, Staphylococcus simulans, and Microcossus luteus are clinical isolates from University of South Florida Medical Clinic. Nieserria gonnorhoeae (β-lactamase positive) is obtained from the Tampa Branch State Laboratory. PenG is penicillin G (potassium salt). Table 1 provides the zones of growth inhibition that are observed after 24 hours using the lactams of FIGS. 1A-1I (designated A-I, respectively).
(§3) Of particular interest is the ability of these compounds to retain their effectiveness against penicillin-resistant strains of Staphylococcus aureus, a dangerous hospital-borne pathogen which is becoming difficult to treat with conventional antibiotic therapy. The lactams were screened for antibacterial activity by disk diffusion on agar plates, and the resulting zones of bacterial growth inhibition measured (see Table 3; each lactam is designated by Figure number).
(§4) Table 3: Growth inhibition zones obtained from agar disk diffusion experiments using 6-mm air-dried disks impregnated with 20 μg of the test compound. The values correspond to the average diameters in mm for the zone of growth inhibition observed after 24 hours. Staphylococcus aureus and β-lactamase-producing strains of methicillin-resistant Staphylococcus aureus (labeled MRSA USF652-659) are obtained from a clinical testing laboratory at Lakeland Regional Medical Center, Lakeland, Fla.
(§5) Those compounds were tested for bioactivity using the Kirby-Bauer test on agar plates.
(§6) Biological activity is enhanced against β-lactamase producing strains of methicillin-resistant Staphylococcus aureus (MRSA). With the lactam shown in FIG. 11A serving as a lead structure, a series of other C-4 substituted derivatives (FIGS. 11B-11I) were investigated herein. Table 5 lists microbiological data for β-lactams from Kirby-Bauer Disc Diffusion Test Results (with each lactam identified by Figure number).
(§7) Scheme I summarizes the synthesis of ester compounds 4. 4-Carboxy benzaldehyde (1) is coupled with the appropriate alcohol using DCC/DMAP, followed by reaction with p-anisidine, to give imines 2. Staudinger coupling of methoxyacetyl chloride with imine 2 gives N-aryl protected β-lactam 3. N-Dearylation of β-lactam 3 with ceric ammonium nitrate and methylthiolation with N-(methylthio)phthalimide affords N-methylthio β-lactams 4. These compounds are tested for antibacterial activity by the Kirby-Bauer method of disc diffusion on agar plates. [drawing 7]

[2] = system: MRSA USF653; test: Kirby-Bauer agar disk diffusion; assay type: cell-based, Staphylococcus aureus; conditions: 6-mm disks, 20 μg test compound
Experimental: as §1, §2, §3, §4, §5, §6, §7

[3] = system: MRSA USF654; test: Kirby-Bauer agar disk diffusion; assay type: cell-based, Staphylococcus aureus; conditions: 6-mm disks, 20 μg test compound
Experimental: as §1, §2, §3, §4, §5, §6, §7

[4] = system: MRSA USF655; test: Kirby-Bauer agar disk diffusion; assay type: cell-based, Staphylococcus aureus; conditions: 6-mm disks, 20 μg test compound
Experimental: as §1, §2, §3, §4, §5, §6, §7

[5] = system: MRSA USF656; test: Kirby-Bauer agar disk diffusion; assay type: cell-based, Staphylococcus aureus; conditions: 6-mm disks, 20 μg test compound
Experimental: as §1, §2, §3, §4, §5, §6, §7

[6] = system: MRSA USF657; test: Kirby-Bauer agar disk diffusion; assay type: cell-based, Staphylococcus aureus; conditions: 6-mm disks, 20 μg test compound
Experimental: as §1, §2, §3, §4, §5, §6, §7

[7] = system: MRSA USF658; test: Kirby-Bauer agar disk diffusion; assay type: cell-based, Staphylococcus aureus; conditions: 6-mm disks, 20 μg test compound
Experimental: as §1, §2, §3, §4, §5, §6, §7

[8] = system: MRSA USF659; test: Kirby-Bauer agar disk diffusion; assay type: cell-based, Staphylococcus aureus; conditions: 6-mm disks, 20 μg test compound
Experimental: as §1, §2, §3, §4, §5, §6, §7

[9] = system: Micrococcus luteus; test: Kirby-Bauer agar disk diffusion; assay type: cell-based; conditions: 6-mm disks, 20 μg test compound
Experimental: as §1, §2, §3, §4

[10] = system: Staphylococcus aureus (ATCC 25923); test: Kirby-Bauer agar disk diffusion; assay type: cell-based; conditions: 6-mm disks, 20 μg test compound
Experimental: as §1, §2, §3, §4

[11] = system: Staphylococcus epidermidis; test: Kirby-Bauer agar disk diffusion; assay type: cell-based; conditions: 6-mm disks, 20 μg test compound
Experimental: as §1, §2, §3, §4

[12] = system: S. simulans (ATCC 11631); test: Kirby-Bauer agar disk diffusion; assay type: cell-based, Staphylococcus simulans; conditions: 6-mm disks, 20 μg test compound
Experimental: as §1, §2, §3, §4

[13] = system: S. saprophyticus (ATCC 3552); test: Kirby-Bauer agar disk diffusion; assay type: cell-based, Staphylococcus saprophyticus; conditions: 6-mm disks, 20 μg test compound
Experimental: as §1, §2, §3, §4

[14] = system: Staphylococcus strains including MRSA; test: antibacterial activity screening, results stated in words; assay type: cell-based, Staphylococcus aureus; conditions: Example 2; all microorganisms tested
Text: However, the N-alkylthio substituent is required, since reduction to the N—H analogue completely destroys the biological activity. […]
as §3
With the lactam of FIG. 6A serving as a lead structure, other C4-unsaturated derivatives (FIGS. 6B-6E) and C4-saturated analogues (FIGS. 6F-6H), were examined all of which also have activity against Staphylococcus strains including MRSA.
as §7

[15] = system: N. gonorrhoeae; test: Kirby-Bauer agar disk diffusion; assay type: cell-based, Neisseria gonorrhoeae; conditions: Table 1; 6-mm disks, 20 μg test compound, 24 h, triplicate; β-lactamase positive
Experimental: as §1, §2

SMILES | zone of growth inhibition, average diameter ([1]; Table 1, 24 h, triplicate) [mm] | zone of growth inhibition, average diameter ([2]; Table 1, 24 h, triplicate) [mm] | zone of growth inhibition, average diameter ([3]; Table 1, 24 h, triplicate) [mm] | zone of growth inhibition, average diameter ([4]; Table 1, 24 h, triplicate) [mm] | zone of growth inhibition, average diameter ([5]; Table 1, 24 h, triplicate) [mm] | zone of growth inhibition, average diameter ([6]; Table 1, 24 h, triplicate) [mm] | zone of growth inhibition, average diameter ([7]; Table 1, 24 h, triplicate) [mm] | zone of growth inhibition, average diameter ([8]; Table 1, 24 h, triplicate) [mm] | zone of growth inhibition, average diameter ([9]; Table 1, 24 h, triplicate) [mm] | zone of growth inhibition, average diameter ([10]; Table 1, 24 h, triplicate) [mm] | zone of growth inhibition, average diameter ([11]; Table 1, 24 h, triplicate) [mm] | zone of growth inhibition, average diameter ([12]; Table 1, 24 h, triplicate) [mm] | zone of growth inhibition, average diameter ([13]; Table 1, 24 h, triplicate) [mm] | zone of growth inhibition, average diameter [15] [mm] | other results
COC1C(=O)N(SC)C1C(C#Cc1ccccc1)OC(C)=O (mixture of isomers) [FIG. 3H] | – | – | – | – | – | – | – | – | – | – | – | – | – | – | zone of growth inhibition, average diameter ([1]; Table 3, 24 hours): 0 mm; zone of growth inhibition, average diameter ([2]; Table 3, 24 hours): 0 mm; zone of growth inhibition, average diameter ([3]; Table 3, 24 hours): 0 mm; zone of growth inhibition, average diameter ([4]; Table 3, 24 hours): 0 mm; zone of growth inhibition, average diameter ([5]; Table 3, 24 hours): 0 mm; zone of growth inhibition, average diameter ([6]; Table 3, 24 hours): 0 mm; zone of growth inhibition, average diameter ([7]; Table 3, 24 hours): 0 mm; zone of growth inhibition, average diameter ([8]; Table 3, 24 hours): 0 mm; zone of growth inhibition, average diameter ([9]; Table 3, 24 hours): 0 mm; zone of growth inhibition, average diameter ([10]; Table 3, 24 hours): 0 mm; zone of growth inhibition, average diameter ([11]; Table 3, 24 hours): 0 mm; zone of growth inhibition, average diameter ([12]; Table 3, 24 hours): 0 mm; zone of growth inhibition, average diameter ([13]; Table 3, 24 hours): 0 mm; antimicrobial activity, in words [14]: inactive
COC1C(=O)N(SC)C1C#Cc1ccccc1 (racemic) [Lactam A] | 31 | 30 | 28 | 29 | 30 | 30 | 27 | 25 | 23 | 27 | 30 | 21 | 22 | 13 | –
COC1C(=O)N(SC)C1C=Cc1ccccc1 (racemic) [Lactam B] | 19 | 23 | 16 | 17 | 19 | 17 | 16 | 15 | 20 | 18 | 23 | 11 | 12 | 11 | –
COC1C(=O)N(SC)C1c1ccccc1 (racemic) [Lactam C] | 30 | 30 | 26 | 25 | 28 | 27 | 26 | 24 | 21 | 25 | 31 | 14 | 22 | 14 | –
